According to patent US10080812B2, “Radioactive iodine labeled pyrido[1,2-a]benzoimidazole derivative compound” (priority 2015, dated 2018):
Values joined by “and” are separate entries in the source; they are usually repeats but may differ in a detail not shown here. Equal entries are not always repeated. Each block holds one molecule with its values, some of them ahead of it.

Legend:
[1] = Log P value measurement (1-octanol/phosphate buffer); assay type: physicochemical; conditions: 1-octanol / 0.1 mol/L phosphate buffer solution pH 7.4
Description: Each of [^125I]BIP-1 to -4 (125 kBq) obtained by the method shown in Example 9 was added to a centrifuge tube containing 1-octanol (3.00 mL) and a 0.1 mol/L phosphate buffer solution (pH 7.4, 3.00 mL), vortexed for 2 minutes, and then centrifuged at 4,000×g for 10 minutes. 500 μL of a solution was collected from each layer, and the radioactivity thereof was then measured. A partition coefficient was determined from the 1-octanol/phosphate buffer solution ratio of radioactivity.

[2] = Comparison of intracerebral kinetics in mice; assay type: in vivo, ddY male mice; conditions: for radioactivity in the brain: i.v. tail vein; for Brain2 min/60 min: ratio of radioactivity in the brain between 2 and 60 min after administration
Description: (§1) Each of [^125I]BIP-1 to -4 obtained by the method shown in Example 9 was diluted with saline containing 10 vol % ethanol and 0.1 vol % Tween 80. Each of [^125I]BIP-1 to -4 was administered to a group of 5-week-old ddY male mice (26 to 28 g; each group involved 5 mice) from the tail veins thereof at 25.0 to 37.5 kBq (100 μL) per mouse. After 2, 10, 30, or 60 minutes, the mice were slaughtered. After blood collection, the brains were taken out, and their weights and radioactivity were measured. As for [^125I]BIP-3, the principal organs were also excised, and their weights and radioactivity were measured.

amyloid β protein (Aβ) = biological target: T1, amyloid β protein (Aβ) (Homo sapiens, UniProt P05067); test: In vitro autoradiography using autopsied brain tissue sections of an Alzheimer's disease patient (frontal lobe); assay type: binding; conditions: for radioactivity accumulation in the frontal lobe section / binding affinity for the amyloid β protein (Aβ): AD brain section, 370 kBq/mL, 2 h room temperature
T1 construct: from tissue; host or cells: autopsied AD patient brain, frontal lobe, 6 µm paraffin sections (Graduate School of Medicine, Kyoto University)
Description: (§2) Autopsied brain tissue sections of an Alzheimer's disease (AD) patient (sections from a frontal lobe site and a temporal lobe site, 6 μm) were used, which were provided from Graduate School of Medicine, Kyoto University. Deparaffinization treatment was performed by washing with xylene (15 min×2), ethanol (1 min×2), a 90 vol % aqueous ethanol solution (1 min×1), an 80 vol % aqueous ethanol solution (1 min×1), a 70 vol % aqueous ethanol solution (1 min×1), and purified water (2.5 min×2). A 10 vol % or 50 vol % aqueous ethanol solution of each of [^125I]BIP-1 to -4 (370 kBq/mL) obtained by the method shown in Example 9 was added thereto, and the tissue sections were incubated at room temperature for 2 hours. The tissue sections were washed with a 50 vol % aqueous ethanol solution (2 hr×1), then exposed to an imaging plate (BAS-SR2025 manufactured by Fujifilm Corp.) for 12 hours, and analyzed using a bioimaging analyzer (bioimaging analyzer BAS-5000 manufactured by Fujifilm Corp.). Multi Gauge manufactured by Fujifilm Corp. was used in quantitative analysis.
Senile plaque (SP) and neurofibrillary tangle (NFT) were stained using sections near the brain sections used in autoradiography. An anti-Aβ1-42 monoclonal antibody (BC05, manufactured by Wako Pure Chemical Industries, Ltd.) was used as a primary antibody in the immunostaining of SP, and an anti-phosphorylated tau monoclonal antibody (AT8, manufactured by Thermo Fisher Scientific Inc.) was used as an antibody in the immunostaining of NFT. Deparaffinization treatment was performed by washing with xylene (15 min×2), ethanol (1 min×2), a 90 vol % aqueous ethanol solution (1 min×1), an 80 vol % aqueous ethanol solution (1 min×1), a 70 vol % aqueous ethanol solution (1 min×1), and purified water (2.5 min×2). The antigens were retrieved by autoclaving (15 min) in a 0.01 mol/L citrate buffer solution (pH 6.0) and formic acid treatment (5 min). The tissue sections were washed with running water (5 min) and then washed with PBS-Tween 20 (2 min×1). […]

tau = test: In vitro autoradiography using autopsied brain tissue sections of an Alzheimer's disease patient (temporal lobe); assay type: binding, human; conditions: for radioactivity accumulation in the brain gray matter of the temporal lobe / binding affinity for tau: AD brain section, 370 kBq/mL, 2 h room temperature; for nonspecific binding to the brain white matter: AD brain sections; for autoradiography images compared with [125I]BIP-1 and [125I]BIP-2: temporal and frontal lobe sections
Description: as §2
Senile plaque (SP) and neurofibrillary tangle (NFT) were stained using sections near the brain sections used in autoradiography. An anti-Aβ1-42 monoclonal antibody (BC05, manufactured by Wako Pure Chemical Industries, Ltd.) was used as a primary antibody in the immunostaining of SP, and an anti-phosphorylated tau monoclonal antibody (AT8, manufactured by Thermo Fisher Scientific Inc.) was used as an antibody in the immunostaining of NFT. Deparaffinization treatment was performed by washing with xylene (15 min×2), ethanol (1 min×2), a 90 vol % aqueous ethanol solution (1 min×1), an 80 vol % aqueous ethanol solution (1 min×1), a 70 vol % aqueous ethanol solution (1 min×1), and purified water (2.5 min×2). The antigens were retrieved by autoclaving (15 min) in a 0.01 mol/L citrate buffer solution (pH 6.0) and formic acid treatment (5 min). The tissue sections were washed with running water (5 min) and then washed with PBS-Tween 20 (2 min×1). The tissue sections were reacted with primary antibody solutions at room temperature for 1 hour and then washed with PBS-Tween 20 (5 min×3). The tissue sections were reacted with Histofine Simple Stain MAX-PO (MULTI) (manufactured by Nichirei Biosciences Inc.) at room temperature for 30 minutes and then washed with PBS-Tween 20 (3 min×3) and TBS (5 min×1). Finally, the tissue sections were reacted with a DAB solution at room temperature for 1 minute. The tissue sections were washed with distilled water (1 min×1) to terminate the reaction. The brain tissue sections were mounted on slides and then observed under a microscope (BZ-9000 manufactured by Keyence Corporation).

[3] = In vivo radioactivity distribution experiment; parameters: species or system ddY male mice; conditions: mouse; for radioactivity in Blood / radioactivity in Brain / radioactivity in Heart / radioactivity in Intestine / radioactivity in Kidneys / radioactivity in Liver / radioactivity in Lungs / radioactivity in Pancreas / radioactivity in Spleen / radioactivity in Stomach / radioactivity in Thyroid gland: i.v.
Description: as §1

[4] = Stability evaluation in plasma; assay type: in vitro ADME, ddY mouse; conditions: 37° C., 1 hour
Description: Blood was collected from the heart of a ddY mouse (5 weeks old, body weight: 25 to 28 g) under anesthesia with isoflurane. The collected blood was fractionated by centrifugation at 4000×g for 10 minutes to recover a supernatant. [^125I]BIP-3 obtained by the method shown in Example 9 (188 kBq, 10.0 μL, ethanol solution) and the mouse plasma sample (200 μL) were mixed. The mixture was incubated at 37° C. for 1 hour, and acetonitrile (400 μL) was added thereto, followed by fractionation by centrifugation at 4000×g for 10 minutes. The supernatant was recovered, treated with Cosmonice Filter (S) (0.45 μm, 4 mm) (Nacalai Tesque, Inc.), and then analyzed by reverse phase HPLC. Analytical conditions for HPLC were the same as the conditions used in Example 9.

[5] = mouse, 2 min after administration
[6] = mouse, 10 min after administration
[7] = mouse, 30 min after administration
[8] = mouse, 60 min after administration

T1 sequence (P05067 672-713 limits assumed): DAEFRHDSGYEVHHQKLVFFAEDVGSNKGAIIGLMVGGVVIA

SMILES: [125I]c1ccc2c(c1)nc1cc(-c3ccccc3)ccn12 [[^125I]BIP-1, 7-[^125I]iodo-3-phenylbenzo[4,5]imidazo[1,2-a]pyridine]
Log P [1]: 2.64
radioactivity in the brain [2, 5]: 3.51 % ID/g
radioactivity in the brain [2, 6]: 2.14 % ID/g
radioactivity in the brain [2, 7]: 0.65 % ID/g
radioactivity in the brain [2, 8]: 0.23 % ID/g
Brain2 min/60 min [2]: 15.3
radioactivity accumulation in the frontal lobe section / binding affinity for the amyloid β protein (Aβ) (amyloid β protein (Aβ)): low
radioactivity accumulation in the brain gray matter of the temporal lobe / binding affinity for tau (tau; temporal lobe): have binding affinity for tau
nonspecific binding to the brain white matter (tau): low nonspecific binding

SMILES: [125I]c1ccc(-c2ccn3c(c2)nc2ccccc23)cc1 [[^125I]BIP-2, 3-(4-[^125I]iodophenyl)benzo[4,5]imidazo[1,2-a]pyridine]
Log P [1]: 2.61
radioactivity in the brain [2, 5]: 2.73 % ID/g
radioactivity in the brain [2, 6]: 1.73 % ID/g
radioactivity in the brain [2, 7]: 0.57 % ID/g
radioactivity in the brain [2, 8]: 0.26 % ID/g
Brain2 min/60 min [2]: 10.4
radioactivity accumulation in the frontal lobe section / binding affinity for the amyloid β protein (Aβ) (amyloid β protein (Aβ)): low
radioactivity accumulation in the brain gray matter of the temporal lobe / binding affinity for tau (tau; temporal lobe): have binding affinity for tau
nonspecific binding to the brain white matter (tau): low nonspecific binding

SMILES: [125I]c1ccc2c(c1)nc1ccccn12 [[^125I]BIP-3, 7-[^125I]iodobenzo[4,5]imidazo[1,2-a]pyridine]
Log P [1]: 3.22
radioactivity in Blood ([3]; 2 min): 5.20 (0.44) % ID/g
radioactivity in Brain ([3]; 2 min): 4.74 (0.57) % ID/g
radioactivity in Heart ([3]; 2 min): 7.66 (1.21) % ID/g
radioactivity in Intestine ([3]; 2 min): 5.41 (0.62) % ID/g
radioactivity in Kidneys ([3]; 2 min): 23.7 % ID/g and 23.7 (2.44) % ID/g
radioactivity in Liver ([3]; 2 min): 19.9 % ID/g and 19.9 (1.39) % ID/g
radioactivity in Lungs ([3]; 2 min): 29.7 (4.63) % ID/g
radioactivity in Pancreas ([3]; 2 min): 5.36 (0.91) % ID/g
radioactivity in Spleen ([3]; 2 min): 4.76 (0.39) % ID/g
radioactivity in Stomach ([3]; 2 min): 2.70 (0.56) % ID
radioactivity in Thyroid gland ([3]; 2 min): 0.09 (0.03) % ID
radioactivity in Blood ([3]; 10 min): 2.94 (0.41) % ID/g
radioactivity in Brain ([3]; 10 min): 0.65 (0.07) % ID/g
radioactivity in Heart ([3]; 10 min): 1.66 (0.75) % ID/g
radioactivity in Intestine ([3]; 10 min): 11.6 (2.43) % ID/g
radioactivity in Kidneys ([3]; 10 min): 12.2 (1.55) % ID/g
radioactivity in Liver ([3]; 10 min): 14.4 (2.14) % ID/g
radioactivity in Lungs ([3]; 10 min): 6.32 (1.16) % ID/g
radioactivity in Pancreas ([3]; 10 min): 1.49 (0.47) % ID/g
radioactivity in Spleen ([3]; 10 min): 1.34 (0.28) % ID/g
radioactivity in Stomach ([3]; 10 min): 6.73 (1.64) % ID
radioactivity in Thyroid gland ([3]; 10 min): 0.06 (0.02) % ID
radioactivity in Blood ([3]; 30 min): 1.30 (0.16) % ID/g
radioactivity in Brain ([3]; 30 min): 0.12 (0.01) % ID/g
radioactivity in Heart ([3]; 30 min): 0.97 (0.26) % ID/g
radioactivity in Intestine ([3]; 30 min): 21.4 (5.69) % ID/g
radioactivity in Kidneys ([3]; 30 min): 10.3 (5.11) % ID/g
radioactivity in Liver ([3]; 30 min): 6.29 (0.45) % ID/g
radioactivity in Lungs ([3]; 30 min): 1.91 (0.29) % ID/g
radioactivity in Pancreas ([3]; 30 min): 0.78 (0.47) % ID/g
radioactivity in Spleen ([3]; 30 min): 0.58 (0.16) % ID/g
radioactivity in Stomach ([3]; 30 min): 5.34 (1.26) % ID
radioactivity in Thyroid gland ([3]; 30 min): 0.13 (0.03) % ID
radioactivity in Blood ([3]; 60 min): 1.11 (0.53) % ID/g
radioactivity in Brain ([3]; 60 min): 0.06 (0.01) % ID/g
radioactivity in Heart ([3]; 60 min): 0.83 (0.24) % ID/g
radioactivity in Intestine ([3]; 60 min): 29.4 % ID/g and 29.4 (7.49) % ID/g
radioactivity in Kidneys ([3]; 60 min): 8.99 (4.47) % ID/g
radioactivity in Liver ([3]; 60 min): 5.25 (0.95) % ID/g
radioactivity in Lungs ([3]; 60 min): 1.45 (0.23) % ID/g
radioactivity in Pancreas ([3]; 60 min): 0.75 (0.30) % ID/g
radioactivity in Spleen ([3]; 60 min): 0.71 (0.11) % ID/g
radioactivity in Stomach ([3]; 60 min): 4.42 (2.43) % ID
radioactivity in Thyroid gland ([3]; 60 min): 0.22 % ID and 0.22 (0.03) % ID
deiodination in living body (from thyroid gland uptake) ([3]; up to 60 min after administration): marked deiodination does not occur
radioactivity in the brain [2, 5]: 4.74 % ID/g
radioactivity in the brain [2, 6]: 0.65 % ID/g
radioactivity in the brain [2, 7]: 0.12 % ID/g
radioactivity in the brain [2, 8]: 0.06 % ID/g
intracerebral kinetics ([2]; mouse, i.v., 2-60 min): favorable intracerebral kinetics
Brain2 min/60 min [2]: 79.0
radioactivity accumulation to the frontal lobe (quantitative analysis) (amyloid β protein (Aβ); frontal lobe sites a-d, only Aβ accumulates): low radioactivity accumulation
stability in mouse plasma (reverse phase HPLC) [4]: only the peak of the parent compound was detected
autoradiography images compared with [125I]BIP-1 and [125I]BIP-2 (tau): images equivalent to [^125I]BIP-1 and [^125I]BIP-2
radioactivity accumulation to the temporal lobe (quantitative analysis) (tau; temporal lobe sites e-j, compared with frontal lobe): higher radioactivity accumulation
radioactivity accumulation on temporal lobe section compared with immunostaining of tau and Aβ (tau; temporal lobe, AT8 and BC05 immunostaining): consistent with the accumulation of tau

Log P [1]: 2.35
radioactivity in the brain [2, 5]: 2.37 % ID/g
radioactivity in the brain [2, 6]: 0.36 % ID/g
radioactivity in the brain [2, 7]: 0.09 % ID/g
radioactivity in the brain [2, 8]: 0.06 % ID/g
Brain2 min/60 min [2]: 39.5
SMILES: [125I]c1ccn2c(c1)nc1ccccc12 [[^125I]BIP-4, 3-[^125I]iodobenzo[4,5]imidazo[1,2-a]pyridine]
autoradiography images compared with [125I]BIP-1 and [125I]BIP-2 (tau): images equivalent to [^125I]BIP-1 and [^125I]BIP-2
